Measurements as given in patent publication US20080200393A1, “Method and Composition For Treating Angiogenesis and For Preventing Cancer Progression and Metastasis Comprising a Prostate Secretory Protein (Psp94) Family Member” (Ambrillia Biopharma Inc., priority 2004, published 2008).
Values joined by “and” are separate entries in the source; they are usually repeats but may differ in a detail not shown here. Equal values may be shown once. Where no end group is shown, it is not given here.

How the values were obtained:
[1] = system: total MMP-9 (human active and pro-MMP-9); experiment: Total MMP-9 ELISA on plasma of patients, Phase IIa clinical trial; format: in vivo; details: for MMP-9 level in plasma, D27C3: day 27 of cycle 3
Description: The clinical trial is a multiple ascending dose, open-label, Phase IIa study evaluating the safety and tolerability of PCK3145 derivative; SEQ ID NO.:7 administered intravenously in patients with metastatic hormone resistant prostatic cancer (HRPC). The study is not randomized. Patients have been enrolled sequentially and chronologically.
The drug was therefore administered to patients characterized as having metastatic adenocarcinoma of the prostate, stage IV prostatic cancer and as having a metastatic hormone resistant prostatic cancer. Four patients per cohort and 4 ascending doses were evaluated. The ascending doses were 5, 20, 40 and 80 mg/m^2. The dose escalation decision has been based on dose-limiting toxicity (DLT).
The 33-day cycle of treatment consisted of a PCK3145 derivative; SEQ ID NO.:7 administration three times per week (day 1, 3 and 5) for 26 days, followed by a 7 day post-treatment observation period. The maximum tolerated dose (MTD) is the dose level below the one inducing grade 3 or 4 drug related toxicity (DLT) in two patients from a cohort of a minimum of 4 patients. Only DLT's observed during the first cycle have been used for the dose escalation decision.
The treatment period consisted of intravenous administration of the PCK3145 derivative (SEQ ID NO.:5 derivative) i.e., SEQ ID NO.:7, three times per week (day 1, 3 and 5) for 26 consecutive days during which patients were closely monitored and undergone regular examination. After a week of treatment break and in the absence of toxicity and disease progression, patients optionally received additional treatment cycles.
Biological samples were drawn during different time points of the study for the purpose of safety monitoring and have been assayed for MMP-9 levels. Plasma samples were placed on dry ice and stored frozen (approximately −70° C.) and subsequently analyzed for total MMP-9 levels.
MMP-9 assay methodology. An Elisa assay measuring total MMP-9, i.e., human active and pro-MMP-9, (Quantikine®), Cat. No.: DMP900, R&D Systems Inc.) was performed on plasma-heparin samples. Plasma samples have been collected from individuals at day 1 (before treatment) and at day 27 of each treatment cycle.
The Quantikine® MMP-9 immunoassay is a solid phase ELISA designed to measure total MMP-9 (92 kDa pro- and 82 kDa active forms) in serum, plasma, saliva, urine and cell culture supernatants. It is calibrated with CHO-cells expressed recombinant human pro-MMP-9 and the antibodies were raised against the recombinant factor. Both antibodies also recognize recombinant human active MMP-9.
The assay employs the quantitative sandwich enzyme immunoassay technique. A monoclonal antibody specific for MMP-9 has been pre-coated onto a microplate. Standards and samples are added into the wells, and MMP-9 is thus bound by the immobilized antibody. After washing away unbound substances, an enzyme-linked polyclonal antibody specific for MMP-9 is added to the wells. Following a wash to remove unbound antibody-enzyme reagent, a substrate solution is added to the wells and color develops in proportion to the amount of total MMP-9 (pro and/or active) bound in the initial step. The color development is stopped and the intensity of the color is measured.

glioma cells (U-87) = experiment: SEAP gene-reporter assay (Mercury Profiling Kit); format: cell-based
Protocol: In order to investigate the potential intracellular pathways triggered by the PCK3145 derivative, a gene-reporter assay using the SEAP (Secreted Alkaline Phosphatase) Mercury Profiling Kit (CLONTECH) was performed in glioma cells (U-87). This assay enables the monitoring of transcription factors that are triggered by a particular experimental condition by assaying the alkaline phosphatase activity in the extracellular media.

U-87 cells [2] = experiment: U-87 cell migration on hyaluronic acid; format: cell-based; details: 300 ug/ml, 48 hrs pretreatment; HA-coated filters, 2 hours
Protocol: The biological activity of a desired polypeptide may further be determined using migration assays. U-87 cells are treated with a polypeptide of the present invention (e.g., any PCK3145 derivative, fragment, analog, such as for example, any one of or combinations of SEQ ID NOs.: 9 to 98). The treated cells are trypsinised, counted, and seeded on HA-coated filters inserted in modified Boyden Chambers as described herein or in the art. Cell migration is allowed to proceed for 2 hours at 37° C. Filters are then stained for cells that have migrated through the filter. A decreased basal U-87 cell migration observed in cells treated with a polypeptide of the present invention is indicative of a biologically active polypeptide (i.e., a biologically active PCK3145 derivative, fragment, analog).
Migration/invasion of cancer cells is a key event in tumor metastasis. In vitro, this process can be reconstituted by plating cells onto ECM-coated filters inserted in modified Boyden chemotactic chambers. The effect of the PCK3145 derivative can be monitored by the number of cells that had migrated comparatively to untreated control cells. […] U-87 cells were treated with the PCK3145 derivative (300 ug/ml, 48 hrs), trypsinised, counted, and seeded on HA-coated filters inserted in modified Boyden Chambers. […]

U-87 cells [3] = experiment: U-87 cell adhesion to hyaluronic acid; format: cell-based; details: U-87, 300 ug/ml, 48 hrs; adhesion 3 hours; three independent experiments
Protocol: ECM recognition is a crucial event in the cell adhesion processes involved in tumor progression. This process is mediated and regulated through specialized cell surface receptors or integrins. […] U-87 cells were treated with the PCK3145 derivative (300 ug/ml, 48 hrs), trypsinised, counted, and seeded on wells coated with 10 ug/ml BSA (bovine serum albumin) or HA. Cells were allowed to adhere for 3 hours. Three independent experiments were performed. […] One such potential intracellular protein is the GTPase RhoA, which is likely to mediate mechanisms regulating cytoskeletal morphogenesis.

MT1-MMP = MT1-MMP expression in U-87 cells; format: cell-based; details: 300 ug/ml

EWQTDNCETCTCYET (cysteine pairing not given here) [PCK3145 derivative, PCK3145 derivative with acetylaminomethyl groups on the three cysteines]
change in MMP-9 levels compared to baseline ([1]; elevated MMP-9 category (patients A, B, C, D), after one cycle): significant decrease
MMP-9 level in plasma, D27C2 ([1]; elevated baseline MMP-9 patients, day 27 of cycle 2): 55.6 µg/L and 37.7 µg/L
MMP-9 level in plasma, D27C3 ([1]; elevated baseline MMP-9 patients): 54.5 µg/L
MMP-9 level in plasma, D27C4 ([1]; elevated baseline MMP-9 patients, day 27 of cycle 4): 39.4 µg/L
MMP-9 level in plasma, D27C3 ([1]; normal baseline MMP-9 patients): 101.8 µg/L
change in MMP-9 levels compared to baseline ([1]; normal value MMP-9 category (patients E, F, G, H, I), after one cycle): no significant decrease
decrease in MMP-9 levels compared to baseline ([1]; patient A, after cycle 1): up to 89%
decrease in MMP-9 levels compared to baseline ([1]; patient B, after cycle 1): 41%
reduction of baseline level of MMP-9 ([1]; patient B, treatment cycle 2): 64%
reduction of baseline level of MMP-9 ([1]; patient B, treatment cycle 3): 65%
reduction of baseline level of MMP-9 ([1]; patient B, treatment cycle 4): 75%
decrease in MMP-9 levels compared to baseline ([1]; patient C, cycle 1): 90%
reduction in MMP-9 levels ([1]; patient C, cycle 2): 76%
decrease in MMP-9 levels compared to baseline ([1]; patient D, cycle 1): 34%
change in MMP-9 levels compared to baseline ([1]; patient E, after 3 cycles): no MMP-9 decrease
change in MMP-9 levels compared to baseline ([1]; patients E and G, after 2 cycles): no decrease
MAPK/JNK pathway (SRE), SEAP reporter (glioma cells (U-87)): triggers significantly
NFkB pathway, SEAP reporter (glioma cells (U-87)): triggers significantly
secretion of the constitutively expressed SEAP (glioma cells (U-87)): inhibited
decrease of basal U-87 cell migration (U-87 cells [2]): approximately 3 fold
diminution of cell adhesion on HA (U-87 cells [3]): 45-76%
MT1-MMP expression (MT1-MMP): slight increase
